The structures appear in SMILES notation.

The target of one assay is T1, c-kit mutant D816V (Homo sapiens, UniProt P10721, D816V/DEL694-753).
T1 construct: residues 551-934, kinase insertion domain residues 694-753 deleted; 6x-histidine (N); made in house; host or cells: E. coli Arctic Express (DE3) RIL (Stratagene)
Put plainly: c-Kit mutant D816V biochemical assay, AlphaScreen. The note with it: c-kit D816V biochemical inhibitory activity; read-out: Biochemical activity (IC50 μM) Kit D816V. The gist of the method:
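Eight-point, threefold compound series incubated 30 min at room temperature with E. coli-produced D816V kinase, 10 μM ATP, Mg2+/Mn2+ HEPES buffer pH 7.2 and 5% DMSO. After EDTA stop, streptavidin and anti-phosphotyrosine (PY20) AlphaScreen beads gave the read-out, and IC50 was fitted from the concentration–signal curve.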
For orientation: In Alpha technology, singlet oxygen from a donor bead excites a nearby acceptor bead.

The next assay has as its target T2, c-kit kinase (Homo sapiens, UniProt P10721).
T2 construct: The c-kit (or kinase domain thereof) is an active kinase in AlphaScreen; poly-Histidine tag (in-house protein only) (cleaved yes); host or cells: E. coli BL21(DE3)RIL, co-expressed with PTP1B
Put plainly: c-Kit biochemical assay, AlphaScreen, 10 μM ATP. The note with it: c-kit biochemical inhibitory activity; read-out: Biochemical activity (IC50 μM) Kit. In outline:
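His-tagged c-Kit expressed in E. coli with co-expressed PTP1B (dephosphorylated), tag removed; 0.1 ng per reaction with biotinylated-peptide substrate in 50 mM HEPES pH 7.2, 5 mM MgCl2, 5 mM MnCl2, 5% DMSO, 10 μM ATP, 1 h at room temperature. Phosphorylation detected by AlphaScreen (streptavidin donor, PY20 acceptor beads); IC50 from 8-point 1:3 dilution series.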

T2 sequence (P10721 26-976): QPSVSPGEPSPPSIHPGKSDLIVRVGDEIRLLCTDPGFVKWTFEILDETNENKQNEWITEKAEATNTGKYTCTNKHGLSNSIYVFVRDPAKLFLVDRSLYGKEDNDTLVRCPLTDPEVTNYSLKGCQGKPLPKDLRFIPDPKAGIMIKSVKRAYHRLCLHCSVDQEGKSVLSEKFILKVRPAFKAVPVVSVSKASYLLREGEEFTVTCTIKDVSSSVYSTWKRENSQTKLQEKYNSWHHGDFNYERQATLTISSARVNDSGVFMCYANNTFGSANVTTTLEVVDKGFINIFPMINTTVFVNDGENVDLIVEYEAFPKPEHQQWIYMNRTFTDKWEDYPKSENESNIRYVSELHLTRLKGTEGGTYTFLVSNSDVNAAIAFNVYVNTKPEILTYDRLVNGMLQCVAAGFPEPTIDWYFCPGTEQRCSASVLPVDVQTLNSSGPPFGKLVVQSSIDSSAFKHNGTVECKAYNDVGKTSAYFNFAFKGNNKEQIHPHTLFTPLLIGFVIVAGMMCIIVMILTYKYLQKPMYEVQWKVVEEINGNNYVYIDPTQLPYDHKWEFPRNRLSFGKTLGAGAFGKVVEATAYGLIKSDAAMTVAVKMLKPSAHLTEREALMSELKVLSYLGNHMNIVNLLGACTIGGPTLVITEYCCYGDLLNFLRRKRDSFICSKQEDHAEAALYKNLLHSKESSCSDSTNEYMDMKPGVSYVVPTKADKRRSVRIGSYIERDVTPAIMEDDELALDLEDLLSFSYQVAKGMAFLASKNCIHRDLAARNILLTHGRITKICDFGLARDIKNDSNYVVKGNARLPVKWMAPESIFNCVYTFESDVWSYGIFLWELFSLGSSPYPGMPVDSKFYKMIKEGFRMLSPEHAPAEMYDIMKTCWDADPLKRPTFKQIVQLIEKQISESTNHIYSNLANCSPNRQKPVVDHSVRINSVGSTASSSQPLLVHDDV
T1 sequence (P10721 with tags, fused parts or gaps DEL694-753/D816V): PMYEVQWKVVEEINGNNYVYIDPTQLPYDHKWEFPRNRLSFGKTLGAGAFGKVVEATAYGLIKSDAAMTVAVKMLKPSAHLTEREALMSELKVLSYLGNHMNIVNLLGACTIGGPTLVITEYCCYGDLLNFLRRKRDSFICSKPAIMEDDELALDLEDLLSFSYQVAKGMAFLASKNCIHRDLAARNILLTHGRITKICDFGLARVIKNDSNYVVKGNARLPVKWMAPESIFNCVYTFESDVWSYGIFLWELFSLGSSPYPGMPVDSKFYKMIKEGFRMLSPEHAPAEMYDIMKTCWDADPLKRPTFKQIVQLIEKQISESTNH

By IC50 is commonly meant the concentration needed to halve the response being measured. With `Cc1cc2c(-c3ccc(NS(=O)(=O)c4ccc(C(F)(F)F)nc4)cc3)ncnc2[nH]1` [P-0297, N-[4-(6-methyl-7H-pyrrolo[2,3-d]pyrimidin-4-yl)phenyl]-6-(trifluoromethyl)pyridine-3-sulfonamide], the IC50 was in the range of 1 to 10 µM on c-kit mutant D816V and 10 to 200 µM on c-kit kinase.
The corresponding values for `CC1(C)C=C(c2cc3c(-c4ccc(NS(=O)(=O)c5ccc(F)cc5)cc4)ncnc3[nH]2)CC(C)(C)O1` [P-0298, 4-fluoro-N-[4-[6-(2,2,6,6-tetramethyl-3H-pyran-4-yl)-7H-pyrrolo[2,3-d]pyrimidin-4-yl]phenyl]benzenesulfonamide] are 1 to 10 µM and 10 to 200 µM.
The corresponding values for `Cc1cc2c(-c3ccc(NS(=O)(=O)c4cc(Cl)c(Cl)s4)cc3)ncnc2[nH]1` [P-0299, 4,5-dichloro-N-[4-(6-methyl-7H-pyrrolo[2,3-d]pyrimidin-4-yl)phenyl]thiophene-2-sulfonamide] are 1 to 10 µM and 1 to 10 µM.
As to `Cc1cc2c(-c3ccc(NS(=O)(=O)c4sc(C)nc4C)cc3)ncnc2[nH]1` [P-0300, 2,4-dimethyl-N-[4-(6-methyl-7H-pyrrolo[2,3-d]pyrimidin-4-yl)phenyl]thiazole-5-sulfonamide], the IC50 lay within 1 to 10 µM at c-kit mutant D816V and 10 to 200 µM at c-kit kinase.
For the compound `Cc1ccc(S(=O)(=O)Nc2ccc(-c3ncnc4[nH]c(C)cc34)cc2)cn1` [P-0301, 6-methyl-N-[4-(6-methyl-7H-pyrrolo[2,3-d]pyrimidin-4-yl)phenyl]pyridine-3-sulfonamide], the IC50 on c-kit mutant D816V was 0.0001 to 1 µM; at c-kit kinase it was 1 to 10 µM.
The corresponding values for `Cc1cc2c(-c3ccc(NS(=O)(=O)c4ccc5c(c4)CCC5)cc3)ncnc2[nH]1` [P-0302, N-[4-(6-methyl-7H-pyrrolo[2,3-d]pyrimidin-4-yl)phenyl]indane-5-sulfonamide] are 0.0001 to 1 µM and 10 to 200 µM.
The corresponding values for `Cc1cc2c(-c3ccc(NS(=O)(=O)c4ccc5oncc5c4)cc3)ncnc2[nH]1` [P-0303, N-[4-(6-methyl-7H-pyrrolo[2,3-d]pyrimidin-4-yl)phenyl]-1,2-benzoxazole-5-sulfonamide] are 10 to 200 µM and 10 to 200 µM.
The corresponding values for `Cc1cc2c(-c3ccc(NS(=O)(=O)c4cc(Cl)cs4)cc3)ncnc2[nH]1` [P-0304, 4-chloro-N-[4-(6-methyl-7H-pyrrolo[2,3-d]pyrimidin-4-yl)phenyl]thiophene-2-sulfonamide] are 1 to 10 µM and 0.0001 to 1 µM.
In the case of `Cc1csc(S(=O)(=O)Nc2ccc(-c3ncnc4[nH]c(C)cc34)cc2)c1` [P-0305, 4-methyl-N-[4-(6-methyl-7H-pyrrolo[2,3-d]pyrimidin-4-yl)phenyl]thiophene-2-sulfonamide], the IC50 fell in the range of 1 to 10 µM at c-kit mutant D816V and 0.0001 to 1 µM at c-kit kinase.
In the case of `Cc1cc2c(-c3ccc(NS(=O)(=O)c4ccc5c(c4)CCO5)cc3)ncnc2[nH]1` [P-0307, N-[4-(6-methyl-7H-pyrrolo[2,3-d]pyrimidin-4-yl)phenyl]-2,3-dihydrobenzofuran-5-sulfonamide], the values for the concentration for half-maximal inhibition (IC50) at c-kit mutant D816V and at c-kit kinase were 1 to 10 µM and 10 to 200 µM, respectively.
Turning to `Cc1ccc2sc(S(=O)(=O)Nc3ccc(-c4ncnc5[nH]c(C)cc45)cc3)cc2c1` [P-0308, 5-methyl-N-[4-(6-methyl-7H-pyrrolo[2,3-d]pyrimidin-4-yl)phenyl]benzothiophene-2-sulfonamide], the IC50 at c-kit mutant D816V lay in the range of 1 to 10 µM; at c-kit kinase it was 10 to 200 µM.
The corresponding values for `Cc1cc2c(-c3ccc(NS(=O)(=O)c4cc5ccccc5s4)cc3)ncnc2[nH]1` [P-0309, N-[4-(6-methyl-7H-pyrrolo[2,3-d]pyrimidin-4-yl)phenyl]benzothiophene-2-sulfonamide] are 1 to 10 µM and 1 to 10 µM.
The corresponding values for `Cc1cc2c(-c3ccc(NS(=O)(=O)c4ccc(OC(C)C)cc4)cc3)ncnc2[nH]1` [P-0311, 4-isopropoxy-N-[4-(6-methyl-7H-pyrrolo[2,3-d]pyrimidin-4-yl)phenyl]benzenesulfonamide] are 10 to 200 µM and 10 to 200 µM.
The corresponding values for `Cc1cc2c(-c3ccc(NS(=O)(=O)c4ccc(C)s4)cc3)ncnc2[nH]1` [P-0313, 5-methyl-N-[4-(6-methyl-7H-pyrrolo[2,3-d]pyrimidin-4-yl)phenyl]thiophene-2-sulfonamide] are 1 to 10 µM and 1 to 10 µM.
`Cc1cc2c(-c3ccc(NS(=O)(=O)c4ccc(F)c(F)c4)cc3)ncnc2[nH]1` [P-0314, 3,4-difluoro-N-[4-(6-methyl-7H-pyrrolo[2,3-d]pyrimidin-4-yl)phenyl]benzenesulfonamide]: the figures for the IC50 at c-kit mutant D816V and at c-kit kinase were 1 to 10 µM and 10 to 200 µM, respectively.
The corresponding values for `CCc1ccc(S(=O)(=O)Nc2ccc(-c3ncnc4[nH]c(C)cc34)cc2)cc1` [P-0315, 4-ethyl-N-[4-(6-methyl-7H-pyrrolo[2,3-d]pyrimidin-4-yl)phenyl]benzenesulfonamide] are 0.0001 to 1 µM and 1 to 10 µM.
The corresponding values for `Cc1cc2c(-c3ccc(NS(=O)(=O)c4ccc(C(F)(F)F)cc4)cc3)ncnc2[nH]1` [P-0317, N-[4-(6-methyl-7H-pyrrolo[2,3-d]pyrimidin-4-yl)phenyl]-4-(trifluoromethyl)benzenesulfonamide] are 0.0001 to 1 µM and 10 to 200 µM.
The corresponding values for `Cc1cc2c(-c3ccc(NS(=O)(=O)c4ccc(Br)cc4)cc3)ncnc2[nH]1` [P-0318, 4-bromo-N-[4-(6-methyl-7H-pyrrolo[2,3-d]pyrimidin-4-yl)phenyl]benzenesulfonamide] are 1 to 10 µM and 1 to 10 µM.
With `CNS(=O)(=O)c1cccc(-c2ncnc3[nH]c(C)cc23)c1` [P-0319, N-methyl-3-(6-methyl-7H-pyrrolo[2,3-d]pyrimidin-4-yl)benzenesulfonamide], the IC50 at c-kit mutant D816V and on c-kit kinase was 10 to 200 µM in each case.
On to `Cc1cc2c(-c3cccc(NS(C)(=O)=O)c3)ncnc2[nH]1` [P-0320, N-[3-(6-methyl-7H-pyrrolo[2,3-d]pyrimidin-4-yl)phenyl]methanesulfonamide], for which the concentration for half-maximal inhibition (IC50) at c-kit mutant D816V and at c-kit kinase was 10 to 200 µM in each case.
On to `O=S(=O)(Nc1ccc(-c2ncnc3[nH]c(C4=CCCC4)cc23)c(F)c1)c1ccc(F)cc1` [P-0321, N-[4-[6-(cyclopenten-1-yl)-7H-pyrrolo[2,3-d]pyrimidin-4-yl]-3-fluoro-phenyl]-4-fluoro-benzenesulfonamide], for which the IC50 at c-kit mutant D816V and at c-kit kinase was 0.0001 to 1 µM throughout.
For `Cc1cc2c(-c3ccc(NS(=O)(=O)c4cnn(C(F)F)c4)cc3)ncnc2[nH]1` [P-0322, 1-(difluoromethyl)-N-[4-(6-methyl-7H-pyrrolo[2,3-d]pyrimidin-4-yl)phenyl]pyrazole-4-sulfonamide], the IC50 lay within 1 to 10 µM at c-kit mutant D816V and 10 to 200 µM on c-kit kinase.
The corresponding values for `Cc1cc2c(-c3ccc(NS(=O)(=O)c4ccc(Cl)s4)cc3)ncnc2[nH]1` [P-0323, 5-chloro-N-[4-(6-methyl-7H-pyrrolo[2,3-d]pyrimidin-4-yl)phenyl]thiophene-2-sulfonamide] are 1 to 10 µM and 1 to 10 µM.
The corresponding values for `COc1ccc(S(=O)(=O)Nc2ccc(-c3ncnc4[nH]c(C)cc34)cc2)cn1` [P-0324, 6-methoxy-N-[4-(6-methyl-7H-pyrrolo[2,3-d]pyrimidin-4-yl)phenyl]pyridine-3-sulfonamide] are 1 to 10 µM and 1 to 10 µM.
The corresponding values for `COc1ccc(S(=O)(=O)Nc2ccc(-c3ncnc4[nH]c(C)cc34)cc2)cc1F` [P-0325, 3-fluoro-4-methoxy-N-[4-(6-methyl-7H-pyrrolo[2,3-d]pyrimidin-4-yl)phenyl]benzenesulfonamide] are 1 to 10 µM and 10 to 200 µM.
Turning to `COc1ccc(S(=O)(=O)Nc2ccc(-c3ncnc4[nH]c(C)cc34)cc2)cc1` [P-0326, 4-methoxy-N-[4-(6-methyl-7H-pyrrolo[2,3-d]pyrimidin-4-yl)phenyl]benzenesulfonamide], the IC50 at c-kit mutant D816V and at c-kit kinase was 1 to 10 µM in each case.
Consider `O=S(=O)(Nc1ccc(Cl)cc1)c1ccc(-c2ncnc3[nH]c(-c4ccc(F)cc4)cc23)c(F)c1` [P-0327, N-(4-chlorophenyl)-3-fluoro-4-[6-(4-fluorophenyl)-7H-pyrrolo[2,3-d]pyrimidin-4-yl]benzenesulfonamide], for which the results for the IC50 at c-kit mutant D816V and on c-kit kinase were 0.0001 to 1 µM and 10 to 200 µM, respectively.
The corresponding values for `O=S(=O)(Nc1ccc(F)cc1)c1ccc(-c2ncnc3[nH]c(-c4ccc(F)cc4)cc23)c(F)c1` [P-0328, 3-fluoro-N-(4-fluorophenyl)-4-[6-(4-fluorophenyl)-7H-pyrrolo[2,3-d]pyrimidin-4-yl]benzenesulfonamide] are 0.0001 to 1 µM and 10 to 200 µM.
The corresponding values for `Cc1cc2c(-c3ccc(NS(=O)(=O)c4ccc(OC(F)F)cc4)cc3)ncnc2[nH]1` [P-0329, 4-(difluoromethoxy)-N-[4-(6-methyl-7H-pyrrolo[2,3-d]pyrimidin-4-yl)phenyl]benzenesulfonamide] are 10 to 200 µM and 10 to 200 µM.
The corresponding values for `Cc1cc2c(-c3ccc(NS(=O)(=O)c4ccc(Cl)cc4)cc3)ncnc2[nH]1` [P-0330, 4-chloro-N-[4-(6-methyl-7H-pyrrolo[2,3-d]pyrimidin-4-yl)phenyl]benzenesulfonamide] are 1 to 10 µM and 1 to 10 µM.

Source of the values: US10227357B2, “Compounds and methods for kinase modulation, and indications therefor” (Plexxikon Inc., priority 2012, dated 2019).
